Laboratory results: patent US4535081A, “Antiallergic and antiulcer 1-oxo-1H-thiazolo[3,2-a]pyrimidine-2-carboxamides and intermediates therefor” (Pfizer Inc., priority 1983, dated 1985)

How the values were obtained:
[1] = system: bone marrow; test: Bone marrow chromosomal damage, mice; type: in vivo, mouse; details: single oral 40 mg/kg; 6, 12 or 24 hours
Experimental: Single oral doses of III, 40 mg/kg, were administered to groups of mice who were sacrificed 6, 12 or 24 hours later. […] From these findings, it is evident that III has no obvious mutagenic potential.

[2] = system: isolated guinea pig ileum (slow reacting substance of anaphylaxis); test: Isolated ileum spasm, slow reacting substance of anaphylaxis; details: 10^-8 to 10^-4 M
[3] = system: IgG (hyperimmune antiserum) PCA reaction; test: Oral activity in PCA test, IgG; type: in vivo; details: Rattus norvegicus, 3 mg./kg., read-out: Oral Activity (% of Protection) in the PCA Test, IgG
Experimental: The antiallergy property of the compounds of this invention is evaluated by the passive cutaneous anaphylaxis (PCA) test (Ovary, J. Immun., 81, 355, 1958). In the PCA test, normal animals are injected intradermally (i.d.) with antibodies contained in serum obtained from actively sensitized animals. The animals are then challenged intravenously with antigen mixed with a dye such as Evans' Blue. The increased capillary permeability caused by the antigen-antibody reaction causes the dye to leak from the site of the antibody injection. The test animals are then asphyxiated and the intensity of the reaction determined by measuring the diameter and intensity of the blue coloration on the inner surface of the animals' skin.
The ability of agents to interfere with PCA reactions is measured in male Charles River Wistar rats, 170-210 g. Reaginic antiserum, rich in IgE antibodies, is prepared according to Petillo et al., Int. Arch. Allergy, 44, 309 (1973). Hyperimmune antiserum rich in IgG antibodies to hen egg albumin is prepared according to Orange et al., J. Exptl. Med., 127, 767 (1968). Forty-eight hours prior to antigen challenge, the reaginic antiserum is injected intradermally (i.d.) into the shaved skin of a normal rat's back; 5 hours before challenge the hyperimmune antisera is similarly injected. At a third site 60 mcg. histamine dihydrochloride and 0.5 mcg. serotonin creatinine sulfate are injected i.d. just prior to antigen challenge as a check for antihistaminic, antiserotonin and unspecific types of blockage; the compounds of the instant invention or saline are then administered i.v. and immediately followed by the challenge of 5 mg. egg albumen and 2.5 mg. Evans' Blue dye in saline. In the case of oral administration Evans' Blue dye and egg albumin are given 5 minutes after administration of the drug. Thirty minutes later the animals are asphyxiated using chloroform and the skin of the back removed and reversed for observation. A score is assigned each injection site equal to the product of the diameter of the site in mm. and a grade of 0.1, 0.5, 1, 2, 3 or 4 proportional to intensity of dye coloration. The scores for a given injection site are summed for each group of five animals and compared to the saline treated controls. The difference is expressed as percent blockage due to the compound employed.
Compounds representative of those of the present invention are tested for antiallergy activity by the above-described procedure and the resulting activities are reported as the degree (%) of protection.

SMILES: O=C(Nc1nnn[nH]1)c1cnc2sc3c(n2c1=O)CCCC3 [Compound III, N-(5-Tetrazolyl)-1-oxo-1H-cyclohexenothiazolo[3,2-a]pyrimidine-2-carboxamide]
- chromosomal damage in bone marrow, single dose [1]: did not reveal any chromosomal damage
- antagonism of spasm of isolated guinea pig ileum [2]: does not antagonize spasms
- inhibition in vivo at 3 mg/kg [3]: 45%
